Data reported in patent publication US12152024B2, “Pesticidally active heterocyclic derivatives with sulphur and hydroxylamine substituents” (SYNGENTA PARTICIPATIONS AG, priority 2016, dated 2024).

Key:
[1] = system: Plutella xylostella (Diamond Back Moth); assay: Activity against Plutella xylostella (diamond back moth), artificial diet; assay type: in vivo; settings: for percent effect (mortality or growth inhibition) at 200 ppm: 120 h, application rate 200 ppm, L2 larvae, 5 days after infestation, read-out: effect in at least one of the two categories (mortality or growth inhibition)
Experimental: (§1) 24-well microtiter plates with artificial diet were treated with aqueous test solutions prepared from 10′000 ppm DMSO stock solutions by pipetting. After drying, the plates were infested with L2 larvae (10 to 15 per well). The samples were assessed for mortality and growth inhibition in comparison to untreated samples 5 days after infestation.

[2] = system: Myzus persicae (Green Peach Aphid); assay: Activity against Myzus persicae (green peach aphid): systemic activity; assay type: in vivo; settings: for mortality at 24 ppm: Myzus persicae, 144 h, test rate 24 ppm, systemic, pea seedling roots in test solution, 6 days
Experimental: Roots of pea seedlings infested with an aphid population of mixed ages were placed directly into aqueous test solutions prepared from 10′000 DMSO stock solutions. The samples were assessed for mortality 6 days after placing seedlings into test solutions.

[3] = system: Spodoptera littoralis (Egyptian Cotton Leaf Worm); assay: Activity against Spodoptera littoralis (Egyptian cotton leaf worm), uptake via lettuce roots from agar; assay type: in vivo; settings: 144 h, test rate 12.5 ppm, 6 days after infestation, read-out: effect in at least one of the three categories (mortality, anti-feeding, or growth inhibition)
From the text: Test compounds were applied by pipette from 10′000 ppm DMSO stock solutions into 24-well plates and mixed with agar. Lettuce seeds were placed onto the agar and the multi well plate was closed by another plate which contained also agar. After 7 days the compound was absorbed by the roots and the lettuce grew into the lid plate. The lettuce leaves were then cut off into the lid plate. Spodoptera eggs were pipetted through a plastic stencil onto a humid gel blotting paper and the lid plate was closed with it. The samples were assessed for mortality, anti-feedant effect and growth inhibition in comparison to untreated samples 6 days after infestation.

[4] = system: Diabrotica balteata (corn root worm); assay: Activity against Diabrotica balteata (corn root worm), maize sprouts sprayed; assay type: in vivo; settings: for percent effect (mortality or growth inhibition) at 200 ppm: 96 h, application rate 200 ppm, L2 larvae, 4 days after infestation, read-out: effect in at least one of the two categories (mortality or growth inhibition)
Experimental: as §1, with “Maize sprouts placed onto an agar layer in 24-well” for “24-well”, “plates” for “plates with artificial diet”, “spraying.” for “pipetting.”, “(6” for “(10”, “10” for “15”, “4” for “5”

[5] = system: Myzus persicae (Green Peach Aphid); assay: Activity against Myzus persicae (green peach aphid): feeding/contact activity; assay type: in vivo; settings: for mortality at 200 ppm: Myzus persicae, 144 h, application rate 200 ppm, feeding/contact, mixed ages, 6 days after infestation
Experimental: Sunflower leaf discs were placed onto agar in a 24-well microtiter plate and sprayed with aqueous test solutions prepared from 10′000 ppm DMSO stock solutions. After drying, the leaf discs were infested with an aphid population of mixed ages. The samples were assessed for mortality 6 days after infestation.

[6] = system: Spodoptera littoralis (Egyptian Cotton Leaf Worm); assay: Activity against Spodoptera littoralis (Egyptian cotton leaf worm), cotton leaf discs sprayed; assay type: in vivo; settings: for percent control (mortality, anti-feedant effect or growth inhibition) at 200 ppm: foliar, 72 h, application rate 200 ppm, L1 larvae, 3 days after infestation, read-out: control (mortality, anti-feeding effect or growth inhibition)
Experimental: Cotton leaf discs were placed onto agar in 24-well microtiter plates and sprayed with aqueous test solutions prepared from 10′000 ppm DMSO stock solutions. After drying the leaf discs were infested with five L1 larvae. The samples were assessed for mortality, anti-feeding effect, and growth inhibition in comparison to untreated samples 3 days after infestation. Control of Spodoptera littoralis by a test sample is given when at least one of the categories mortality, anti-feedant effect, and growth inhibition is higher than the untreated sample.

[7] = system: Euschistus heros (Neotropical Brown Stink Bug); assay: Activity against Euschistus heros (neotropical brown stink bug), soybean leaves sprayed; assay type: in vivo; settings: 120 h, application rate 200 ppm, N2 nymphs, 5 days after infestation, read-out: effect in at least one of the two categories (mortality or growth inhibition)
Experimental: Soybean leaves on agar in 24-well microtiter plates were sprayed with aqueous test solutions prepared from 10′000 ppm DMSO stock solutions. After drying the leaves were infested with N2 nymphs. The samples were assessed for mortality and growth inhibition in comparison to untreated samples 5 days after infestation.

[8] = system: Bemisia tabaci (Cotton White Fly); assay: Activity against Bemisia tabaci (cotton white fly); assay type: in vivo; settings: 144 h, application rate 200 ppm, adult white flies, 6 days after incubation
Experimental: Cotton leaf discs were placed on agar in 24-well microtiter plates and sprayed with aqueous test solutions prepared from 10′000 ppm DMSO stock solutions. After drying the leaf discs were infested with adult white flies. The samples were checked for mortality 6 days after incubation.

[9] = system: Tetranychus urticae (Two-Spotted Spider Mite); assay: Activity against Tetranychus urticae (two-spotted spider mite); assay type: in vivo; settings: 192 h, application rate 200 ppm, mixed population (mobile stages), 8 days after infestation
Experimental: Bean leaf discs on agar in 24-well microtiter plates were sprayed with aqueous test solutions prepared from 10′000 ppm DMSO stock solutions. After drying the leaf discs were infested with a mite population of mixed ages. The samples were assessed for mortality on mixed population (mobile stages) 8 days after infestation.

[10] = system: Franklinella occidentalis (Western Flower Thrips); assay: Activity against Franklinella occidentalis (western flower thrips); assay type: in vivo; settings: Frankliniella occidentalis, 168 h; application rate 200 ppm; mixed ages; 7 days after infestation
Experimental: Sunflower leaf discs were placed on agar in 24-well microtiter plates and sprayed with aqueous test solutions prepared from […] stock solutions. After drying the leaf discs were infested with a Frankliniella population of mixed ages. The samples were assessed for mortality 7 days after infestation.

[11] = concentration 12.5 ppm, listed as drawing 143

melting point | Structure (SMILES) | percent effect (mortality or growth inhibition) at 200 ppm [1] | Mortality (%) [1, 11] | Mortality (%) ([2]; Myzus persicae (systemic), concentration 1.5 ppm, listed as drawing 143) | mortality at 24 ppm [2] | percent effect (mortality, anti-feeding or growth inhibition) at 12.5 ppm [3] | percent effect (mortality or growth inhibition) at 200 ppm [4] | Mortality (%) ([4]; concentration 50 ppm, listed as drawing 143) | Mortality (%) ([5]; Myzus persicae (feeding/contact), concentration 50 ppm, listed as drawing 143) | mortality at 200 ppm [5] | Mortality (%) [6, 11] | percent control (mortality, anti-feedant effect or growth inhibition) at 200 ppm [6] | percent effect (mortality or growth inhibition) at 200 ppm [7] | mortality at 200 ppm [8] | mortality at 200 ppm [9] | mortality at 200 ppm [10]
– | CCS(=O)(=O)c1cccnc1-c1nc2cc(C(F)(F)F)n(OC)c(=O)c2n1C [Compound A2, 2-(3-ethylsulfonyl-2-pyridyl)-5-methoxy-3-methyl-6-(trifluoromethyl) imidazo[4,5-c]pyridin-4-one] | ≥ 80% | 80% | 80% | ≥ 80% | ≥ 80% | ≥ 80% | 100% | 100% | ≥ 80% | 80% | ≥ 80% | ≥ 80% | – | – | –
– | CCS(=O)(=O)c1ccc(-n2cncn2)nc1-c1nc2cc(C(F)(F)F)n(OC)c(=O)c2n1C [Compound A3, 2-[3-ethylsulfonyl-6-(1,2,4-triazol-1-yl)-2-pyridyl]-5-methoxy-3-methyl-6-(trifluoromethyl)imidazo[4,5-c]pyridin-4-one] | ≥ 80% | – | – | ≥ 80% | – | ≥ 80% | – | – | ≥ 80% | – | ≥ 80% | ≥ 80% | ≥ 80% | ≥ 80% | –
– | CCS(=O)(=O)c1cc(C2(C#N)CC2)cnc1-c1nc2cc(C(F)(F)F)n(OC)c(=O)c2n1C [Compound A8, 1-[5-ethylsulfonyl-6-[5-methoxy-3-methyl-4-oxo-6-(trifluoromethyl)imidazo[4,5-c]pyridin-2-yl]-3-pyridyl]cyclopropanecarbonitrile] | ≥ 80% | – | – | ≥ 80% | – | ≥ 80% | – | – | ≥ 80% | – | ≥ 80% | ≥ 80% | ≥ 80% | ≥ 80% | –
– | CCS(=O)(=O)c1cc(C2(C#N)CC2)ccc1-c1nc2cc(C(F)(F)F)n(OC)c(=O)c2n1C [Compound A9, 1-[3-ethylsulfonyl-4-[5-methoxy-3-methyl-4-oxo-6-(trifluoromethyl)imidazo[4,5-c]pyridin-2-yl)phenyl]cyclopropanecarbonitrile] | ≥ 80% | – | – | ≥ 80% | – | ≥ 80% | – | – | ≥ 80% | – | ≥ 80% | ≥ 80% | ≥ 80% | ≥ 80% | –
195 to 197 °C | CCS(=O)(=O)c1ccc(Cl)nc1-c1nc2cc(C(F)(F)F)n(OC)c(=O)c2n1C [Compound A11, 2-(6-chloro-3-ethylsulfonyl-2-pyridyl)-5-methoxy-3-methyl-6-(trifluoromethyl)imidazo[4,5-c]pyridin-4-one] | – | – | – | – | – | – | – | – | – | – | – | – | – | – | –
– | CCS(=O)(=O)c1cc(C(C)(C)C#N)cnc1-c1nc2cc(C(F)(F)F)n(OC)c(=O)c2n1C [Compound A12, 2-[5-ethylsulfonyl-6-[5-methoxy-3-methyl-4-oxo-6-(trifluoromethyl)imidazo[4,5-c]pyridin-2-yl]-3-pyridyl]-2-methyl-propanenitrile] | ≥ 80% | – | – | ≥ 80% | – | ≥ 80% | – | – | ≥ 80% | – | ≥ 80% | ≥ 80% | ≥ 80% | – | ≥ 80%
– | CCS(=O)(=O)c1cc(Cl)c(N)nc1-c1nc2cc(C(F)(F)F)n(OC)c(=O)c2n1C [Compound A14, 2-(6-amino-5-chloro-3-ethylsulfonyl-2-pyridyl)-5-methoxy-3-methyl-6-(trifluoromethyl)imidazo[4,5-c]pyridin-4-one] | ≥ 80% | – | – | ≥ 80% | – | ≥ 80% | – | – | ≥ 80% | – | ≥ 80% | ≥ 80% | ≥ 80% | – | –
– | CCS(=O)(=O)c1cc(Br)cnc1-c1nc2cc(C(F)(F)F)n(OC)c(=O)c2n1C [Compound A17, 2-(5-bromo-3-ethylsulfonyl-2-pyridyl)-5-methoxy-3-methyl-6-(trifluoromethyl)imidazo[4,5-c]pyridin-4-one] | ≥ 80% | – | – | ≥ 80% | – | ≥ 80% | – | – | ≥ 80% | – | ≥ 80% | ≥ 80% | ≥ 80% | – | –
